The target in assay [1] is T1, Ram seminal vesicle microsomal cyclooxygenase (Ovis aries, UniProt P05979).
T1 construct: Ram seminal vesicular glands were trimed of excess fat; from tissue; host or cells: ram seminal vesicular glands, microsomes (105K×g pellet)
T1 sequence (P05979 25-600): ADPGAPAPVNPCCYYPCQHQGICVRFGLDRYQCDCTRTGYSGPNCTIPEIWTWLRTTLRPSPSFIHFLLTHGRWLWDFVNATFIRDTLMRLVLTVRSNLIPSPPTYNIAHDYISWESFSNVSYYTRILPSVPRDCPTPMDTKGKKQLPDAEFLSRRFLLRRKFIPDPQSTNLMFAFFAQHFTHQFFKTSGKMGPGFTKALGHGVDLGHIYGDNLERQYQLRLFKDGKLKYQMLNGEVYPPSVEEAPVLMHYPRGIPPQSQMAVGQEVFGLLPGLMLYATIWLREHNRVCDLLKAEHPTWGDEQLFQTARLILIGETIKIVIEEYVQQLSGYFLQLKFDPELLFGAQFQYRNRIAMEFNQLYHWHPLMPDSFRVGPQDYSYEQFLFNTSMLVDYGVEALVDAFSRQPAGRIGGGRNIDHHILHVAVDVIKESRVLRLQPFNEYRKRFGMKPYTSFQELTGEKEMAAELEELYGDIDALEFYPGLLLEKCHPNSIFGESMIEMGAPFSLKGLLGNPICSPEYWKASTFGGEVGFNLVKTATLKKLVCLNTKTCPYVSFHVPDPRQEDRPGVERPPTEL
As to the kind of experiment: Ram Seminal Vesicle Microsomal Cyclooxygenase Assay (RSV CO). The format is biochemical. As to conditions: for activity in the CO assay: reference compounds; for IC50: RSV cyclooxygenase, mean values of at least two titrations. On the procedure: Compounds of formula I were also evaluated in accordance with the ram seminal vesicle microsomal cyclooxygenase (RSV CO) assay.
Ram Seminal Vesicle Microsomal Cyclooxygenase Assay (RSV CO)
Ram seminal vesicular glands were trimed of excess fat, 50 gm diced into ice cold 0.1M potassium phosphate (pH 7.6) buffer and homoginized using a Brinkman Polytron. The suspension was centrifuged 10 min. at 10K×g (4°) and the supernatant filtered through two cheesecloth layers. The filtrate was centrifuged 160 min. at 105K×g. The supernatant was discarded and the pellet surface rinsed with a small volume of buffer. The pellets were combined in a small volume, briefly homoginized with the Polytron and frozen in 0.5 mL aliquots at -80°. The protien concentration was ~50 mg/mL. […] The thawed enzyme was diluted 1:63 with 0.125M sodium EDTA (pH 8.0) containing 50 mg/ml BSA. A substrate cofactor premix was prepared with 66 mL 14C-arachidonic acid (~20K cpm/12.5 mL) in 500 mL 0.125 M sodium EDTA (pH 8.0) plus 10 mL 50 mM hydroquinone and 10 mL 200 mM glutathione. To each sample well in the 96 well plate agents were added disolved in 0.5 mL DMSO followed by 12.5 mL of the diluted enzyme. After a 4 minute preincubation at room temperature 12.5 mL of the substrate cofactor mix was added to start the reaction. The reaction was killed after 20 minutes at room temperature by adding 25 mL methanol containing 200 mg PGE2 and 400 mg AA per mL. The entire reaction mixture was spotted onto a preadsorbent silica gel GF thin layer plate and, after air drying 45 minutes developed 12 cm in ethyl acetate:glacial acetic acid (99:1). The developed lanes were scanned for the distribution of radiolabel using a Bioscan Imaging Detector and the integrated peaks compared to standards and controls yielding percent inhibition.

Assay [2] relates to LTB4 production in PMN (LO). The experiment in a line: PMN LTB4 Assay (inhibition of LTB4 production in rat PMN). It is filed as cell-based, male Sprague-Dawley rats. The settings on record: for IC50: leukotriene biosynthesis in rat PMN, mean values of at least two titrations. The protocol:
Male Sprague-Dawley rats (~350 g) were injected intraperitoneally the day before use with 8 mL of 12% sodium caseinate. The next day the animals were killed by CO2 asphyxiation and the peritoneal cavity lavaged twice with 20 mL of Hanks balanced salts containing 15 mM HEPES (pH 7.4), 1.4 mM Ca^++ and 0.7 mM Mg^++ (Hepes-Hanks). The suspensions were filtered through plastic mesh and centrifuged at 260×g for 5 minutes. The cells were resuspended in 50 ml Hepes-Hanks and recentrifuged. The PMN pellets were combined and suspended at 1.25×10^7 cells/mL. The cell suspension was diluted 1:10, preincubated 5 minutes at 37° and distributed into 96 well microtiter plates with […]. The wells had previously received samples, controls, ect., in 25 mL of 0.001% fatty acid free BSA in Hepes-Hanks. The plates were incubated 2 min. at 37° and then the cells were stimulated to produce LTB4 by the addition of 25 mL of […]. After 4 minutes the plates were frozen in dry ice. The frozen plates were thawed to 4° and 25 mL aliquots removed to V-well plates. Antibody to LTB4 (50 mL) was added in and after 15 minutes at room temperature, 50 mL of ^3 H-LTB4 was added and the plates were stored overnight at 4° to allow equilibration. The next day the "free" 3HLTB4 was removed by adsorption to dextran coated charcoal ([…]/well of a 4% charcoal suspension with 0.25% Dextran T-70 in 10 mM potassium phosphate (pH 7.3) containing 1 mM EDTA and 0.25 mM thimerasol) durring a 10 minute ice temperature incubation. The charcoal was removed by a 10 minute centrifugation at 260×g. Aliquots of the supernatant were counted in a Packard 460, analyzed in a Masscomp computer (programs "filhariala and fhariasa") and the data reported as percent inhibition of LTB4 production.

Assay [3] concerns the target cyclooxygenase. The settings on record: bovine seminal vesicle microsomal enzyme preparation; read-out: IC50 against cyclooxygenase; cited from earlier work.
The subject of assay [4] is 5-lipoxygenase. As to conditions: cited from earlier work.
In assay [5] the test system is animal models of inflammation. The settings on record: several animal models; cited from earlier work.
Assay [6] deals with LTB4 biosynthesis in intact rat PMN. As to conditions: cited from earlier work.
In assay [7] the test system is cyclooxygenase. The settings on record: cited from earlier work.

Read-outs that look alike come from different tables or passages of the source.

As for `COc1ccc2c(c1)c(CC(=O)O)c(C)n2C(=O)c1ccc(Cl)cc1` [indomethacin, reference compound], in assay [1], the “activity in the CO assay” value is reported as “displaying activity”.
For orientation: IC50 means the concentration that inhibits the measured activity by half. `Cc1coc2c(C(=O)c3ccccc3)ccc(O)c12` [Compound 6, 3-Methyl-4-hydroxy-7-benzoylbenzofuran]: the IC50 was 1.3 µM in assay [1] and 3.5 µM in assay [2].
Regarding `CC(C)Cc1ccc(C(C)C(=O)O)cc1` (centres unmarked) [ibuprofen, reference compound], in assay [1], the “activity in the CO assay” value is reported as “displaying activity”.
As to `Cc1coc2c(C(=O)c3cccs3)cc(C(C)(C)C)c(O)c12` [Compound 14, 3-Methyl-4-hydroxy-5-tert-butyl-7-(2-thienoyl)-benzofuran], the IC50 in assay [1] is 1 µM; in assay [2], 1.5 µM.
The inhibition is the share of the control response that was lost under treatment. On to `Cc1coc2c(C(C)(C)C)cc(C(C)(C)C)c(O)c12` [Compound 10b, 3-Methyl-4-hydroxy-5,7-di-tert-butylbenzofuran], for which the inhibition at 10000 µg/mL in assay [1] (read-out: % inhibition (CO)) stood at 0%. In addition, the inhibition at 1000 µg/mL in assay [2] (Rattus norvegicus, at 1 mg/ml) worked out at 37%.
As for `C=CCc1cc(C(=O)c2cccs2)c2occ(C)c2c1O` [Compound 4, 3-methyl-4-hydroxy-5-(2-propen-1-yl)-7-(2-thienoyl)benzofuran], the IC50 in assay [1] was 5.6 µM; in assay [2], 6.7 µM.
With `Cc1coc2c(C(=O)c3cccs3)ccc(O)c12` [Compound 3, 3-Methyl-4-hydroxy-7-(2-thienoyl)benzofuran], the 50% inhibitory concentration (IC50) in assay [1] stood at 0.8 µM; in assay [2] it was 2.7 µM.
On to `Cc1coc2c(C(C)(C)C)ccc(O)c12` [Compound 10a, 3-Methyl-4-hydroxy-7-tert-butylbenzofuran], for which, in assay [1] (read-out: % inhibition (CO)), the inhibition at 1000 µg/mL amounted to 1%. The compound further had an IC50 in assay [2] of 2.1 µM.
Take `CC(C)(C)c1cc(C(=O)c2cccs2)cc(C(C)(C)C)c1O` [A, 2,6-di-tert-butyl-4-(2-thienoyl) phenol]: the IC50 in assay [3] is 0.5 µM; in assay [4] (guinea pig lung, read-out: IC50 against guinea pig lung 5-lipoxygenase), 20 µM. The “potency at inhibiting guinea pig lung 5-lipoxygenase relative to cyclooxygenase” value in assay [4] (compared with bovine seminal vesicle cyclooxygenase) is “fortyfold less potent”. Moreover, the “antiinflammatory activity in animal models of inflammation” value in assay [5] is “novel antiinflammatory agent in several animal models of inflammation”.
As to `Cc1coc2c(C(=O)c3ccccc3)cc(C(C)(C)C)c(O)c12` [Compound 16, 3-Methyl-4-hydroxy-5-tert-butyl-7-benzoylbenzofuran], the IC50 in assay [1] turned out to be 1.3 µM; in assay [2] it was 1.1 µM.
As to `Cc1coc2c(C(=O)c3ccc(Cl)cc3)cc(C(C)(C)C)c(O)c12` [Compound 19, 3-Methyl-4-hydroxy-5-tert-butyl-7-p-chlorobenzoylbenzofuran], the IC50 in assay [1] turned out to be 1.2 µM; in assay [2] it was 4.4 µM.
For the compound `Cc1coc2ccc(C(C)(C)C)c(O)c12` [Compound 12b, 3-Methyl-4-hydroxy-5-tert-butylbenzofuran], the half-maximal inhibitory concentration (IC50) in assay [1] came to 54 µM; in assay [2], 0.6 µM.
Turning to `CCCc1cc(Cl)c2oc(Cc3ccccc3)c(C)c2c1O` [Compound B], the results for the IC50 in assay [6] and in assay [7] (RSV CO) were 0.24 µM and 25 µM, respectively. Moreover, the “potency on cyclooxygenase relative to LTB4 biosynthesis inhibition (selectivity)” value in assay [7] (RSV CO versus intact rat PMN) is “a hundred times less potent”.
For `CCCc1cc(C(=O)c2cccs2)c2occ(C)c2c1O` [Compound 5, 3-Methyl-4-hydroxy-5-propyl-7-(2-thienoyl)benzofuran], the IC50 in assay [1] worked out at 1.3 µM; in assay [2], 1.7 µM.

Values taken from patent US5006549A, “Novel 7-aroyl-4-hydroxy-3-methyl-benzofurans as dual inhibitors of cyclooxygenase and 5-lipoxygenase” (priority 1989, dated 1991).
